Reference: patent US9040693B2, “Fused heterocyclic derivative, medicinal composition containing the same, and medicinal use thereof” (KISSEI PHARMACEUTICAL CO., LTD., priority 2005, dated 2015)

How the values were obtained:
[1] = Assay for oral absorbability: plasma drug concentration in rats after intravenous (1 mg/kg) and oral (3 mg/kg) administration (Cmax, bioavailability, C360); format: in vivo; settings: SD rats; for Cmax / bioavailability: male, rat, plasma; for Cmax / C360 (plasma drug concentration at 360 minutes after administration): oral administration, 3 mg/kg; for Cmax: read-out: Cmax (maximum plasma drug concentration); for bioavailability: oral 3 mg/kg vs intravenous 1 mg/kg; for blood concentration 6 hours after oral administration, sustainability (in words) / availability by oral administration (in words): oral 3 mg/kg; for blood concentration 6 hours after oral administration, sustainability (in words): 360 minutes, compared with Control compounds 1 and 2; for availability by oral administration (in words): compared with the compounds of Example 22 (sulfonamide) and Example 95 (amide); for C360 (plasma drug concentration at 360 minutes after administration): class symbols
Procedure: Assay for Oral Absorbability
1) Preparation of the Samples for Measurement of the Drug Concentration After Intravenous Injection to the Tail Vein
As experimental animal, overnight fasted SD rats (Charles River, male, 7 weeks of age, 170-210 g) were used. One mg of a test compound was dissolved by adding 0.2 mL of N,N-dimethylacetoamide, 0.798 mL of saline and 0.002 mL of 2N NaOH, and then 1.0 mg/mL solution was prepared. The body weights of rats were measured, and the solution of the test compound was injected intravenously to the tail vein of unanesthetized rats at the dose of 1 mL/kg (1 mg/kg). The intravenous injection to the tail vein was performed with 26 G injection needle and 1 mL syringe. The sampling times for collection of blood were 2, 15, 60, 120, 240 and 360 minutes after the intravenous injection to the tail vein. The blood was centrifuged, and the plasma was used as the sample for measurement of the drug concentration in blood.
2) Preparation of the Samples for Measurement of the Drug Concentration After Oral Administration
As experimental animal, overnight fasted SD rats (Charles River, male, 7 weeks of age, 170-210 g) were used. Three mg of a test compound was dissolved by adding 0.2 mL of N,N-dimethylacetoamide, 9.794 mL of 0.5% aqueous sodium methylcellulose solution and 0.006 mL of 2N NaOH, and then 0.3 mg/mL solution was prepared. The body weights of rats were measured, and the solution of the test compound was administered orally at the dose of 10 mL/kg (3 mg/kg). The oral administration was performed with gastric tube for rat and 2.5 mL syringe. The sampling times for collection of blood were 15, 30, 60, 120, 240 and 360 minutes after the oral administration. The blood was centrifuged, and the plasma was used as the sample for measurement of the drug concentration in blood.
3) Measurement of the Drug Concentration
To 0.025 mL of the plasma obtained in 1) and 2) described above, 0.1 mL of an adequate internal standard material was added according to the usual method, and then deproteinization was performed by adding 0.875 mL of acetonitrile. After centrifugation, 0.005 mL of the supernatant was injected into LC-MS/MS. The drug concentration in plasma was measured by LC-MS/MS method under the conditions as follows. To 0.05 mL of the blank plasma were added the internal standard material and various test compounds adequately according to the usual method, similar operating described above was done, and then the standard curves were prepared.
Each area under the plasma drug concentration-time curve by intravenous injection to the tail vein and oral administration of the test compound was estimated with WinNonlin Professional by Pharsight Corporation from the plasma drug concentration at each time obtained from the above mentioned method, and then the bioavailability (%) was calculated based on the following formula.
Bioavailability (%)={[(Area under the plasma drug concentration-time curve by oral administration)/3]/(area under the plasma drug concentration -time curve by intravenous injection to the tail vein)}×100
In the oral administration, the maximum plasma drug concentration (Cmax), bioavailability and the plasma drug concentration at 360 minutes after administration (C360) are shown in Tables 110 to 112.

[2] = target: human GnRH receptor1 (GnRHR1) (Homo sapiens (Human), UniProt P30968); test: Assay of GnRH antagonizing effect: inhibition of GnRH-stimulated intracellular calcium flux in HEK293 cells transiently expressing human GnRHR1; format: cell-based; settings: 5 nM GnRH, FLIPR calcium dye, read-out: IC50 (drug concentration at which 50% GnRH-stimulated intracellular calcium flux was inhibited)
Source text: 1) Cloning and Construction of the Vector Expressing Human GnRH Receptor1 (GnRHR1)
Using cDNA deprived from human pituitary (BECTON DICKINSON) as a template, the DNA fragment coding 45 to 1115 bp of human GnRHR1 (Accession No. L03380), which was reported by Kakar et al., was amplified by PCR method and inserted into the multi-cloning site of pcDNA3.1(+) (Invitrogen). The DNA sequence inserted was perfectly matched to the previously reported sequence.
2) Preparation of HEK293 (Human Embryonic Kidney) Cells Expressing Human GnRH Receptor1
The expression vector introduced human GnRHR1 gene was transfected into cultured HEK293 cells (medium : MEM, 10% FCS, containing antibiotics, non-essential amino acids and pyruvic acid) by means of lipofection with the use of Lipofectamine2000 (Invitrogen). After transfection, the cells were cultured for 2 days, and used for examinations.
3) Assay of GnRH Antagonizing Effect
Antagonizing effect of compounds for human GnRHR1 was evaluated by change of calcium levels in GnRH-stimulated cells. After removing the culture medium of HEK293 cells transiently expressing human GnRHR1, cells were washed with 200 μL piper well of the washing buffer (Hank's Balanced Salt Solutions, 20 mM N-2-hydroxyethylpiperazine-N′-2-ethanesulfonic acid, 1.3 mM calcium chloride, 0.5 mM magnesium chloride, 0.4 mM magnesium sulfate). One hundred μL of the Ca^2+sensitive dye solution (FLIPR Calcium Assay Kit (Molecular Devices)) was added to the well, and the cells were incubated for 1 hour at 37° C., 5% CO2. Then, intracellular calcium levels were determined under the following condition by using FLEX STATION (Molecular Devices). In the equipment, which was warmed to 37° C., 50 μL of test compound diluted with the measurement buffer (the washing buffer with 0.1% Albumin bovine serum) was added to the well. After 1 minute, 50 μL of 5 nM GnRH was added to the well. The drug concentration, at which 50% GnRH-stimulated intracellular calcium flux was inhibited (IC50 value), was calculated using logit plot (Table 108).

human GnRH receptor1 (GnRHR1), sequence (P30968 whole entry): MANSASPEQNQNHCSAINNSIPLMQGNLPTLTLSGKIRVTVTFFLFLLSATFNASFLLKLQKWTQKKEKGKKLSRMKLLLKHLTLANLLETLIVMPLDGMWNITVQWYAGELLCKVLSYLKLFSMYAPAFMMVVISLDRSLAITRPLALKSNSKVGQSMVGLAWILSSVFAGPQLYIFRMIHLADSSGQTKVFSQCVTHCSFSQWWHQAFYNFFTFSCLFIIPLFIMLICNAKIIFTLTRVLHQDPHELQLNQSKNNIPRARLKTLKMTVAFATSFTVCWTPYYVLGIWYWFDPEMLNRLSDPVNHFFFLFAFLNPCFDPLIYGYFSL

SMILES	Cmax [1] [ng/mL]	IC50 [2] [nM]	bioavailability [1] [%]	availability by oral administration (in words) [1]	C360 (plasma drug concentration at 360 minutes after administration) [1]	blood concentration 6 hours after oral administration, sustainability (in words) [1]
Cc1cccc(N(C)S(=O)(=O)c2ccc(Cl)c(-n3c(=O)[nH]c4sccc4c3=O)c2)c1 [Example 17]	–	101	–	–	–	–
O=C(O)c1scc2[nH]c(=O)n(-c3cc(S(=O)(=O)N4CCCc5ccccc54)ccc3Cl)c(=O)c12 [Example 22, 5-Carboxy-3-[2-chloro-5-(3,4-dihydroquinolin-1(2H)-yl-sulfonyl)phenyl]thieno[3,4-d]pyrimidine-2,4(1H,3H)-dione]	342	2	11	–	–	–
CNC(=O)c1scc2[nH]c(=O)n(-c3cc(S(=O)(=O)N4CCCc5ccccc54)ccc3Cl)c(=O)c12 [Example 31, 5-Methylcarbamoyl-3-[2-chloro-5-(3,4-dihydroquinolin-1(2H) -ylsulfonyl)phenyl]thieno[3,4-d]pyrimidine-2,4(1H,3H)-dione]	–	272	–	–	–	–
Cc1ccccc1COc1ccc(Cl)c(-n2c(=O)[nH]c3csc(C(=O)O)c3c2=O)c1 [Example 25]	–	85	–	–	–	–
O=c1[nH]c2ccsc2c(=O)n1-c1cc(S(=O)(=O)N2CCCc3ccccc32)ccc1Cl [Example 2]	–	199	–	–	–	–
COc1cccc(F)c1C(C)Oc1ccc(F)c(-n2c(=O)[nH]c3csc(C(=O)O)c3c2=O)c1 (stereo not drawn) [Example 48, 5-Carboxy-3-{2-fluoro-5-[1-(2-fluoro-6-methoxyphenyl) -ethoxy]phenyl}[3,4-d]pyrimidine-2,4(1H,3H)-dione]	14500	29	65	more excellent availability	–	–
O=c1[nH]c2sccc2c(=O)n1-c1cc(S(=O)(=O)N2CCCc3ccccc32)ccc1Cl [Example 3]	–	80	–	–	–	–

More lines, main results first:

Cmax [1] [ng/mL]	IC50 [2] [nM]	bioavailability [1] [%]	availability by oral administration (in words) [1]	C360 (plasma drug concentration at 360 minutes after administration) [1]	SMILES	blood concentration 6 hours after oral administration, sustainability (in words) [1]
322	19	–	–	–	CN(C(=O)c1ccc(Cl)c(-n2c(=O)[nH]c3csc(C(=O)O)c3c2=O)c1)c1ccccc1 [Example 95]	–
14100	15	–	more excellent availability	A (A: >1000 ng/mL)	COCCOc1ccc(F)c(F)c1COc1ccc(F)c(-n2c(=O)[nH]c3csc(C(=O)O)c3c2=O)c1 [Example 367]	maintain their blood concentrations 6 hours after the oral administrations
17900	10	–	more excellent availability	A (A: >1000 ng/mL)	CC(C)(C(=O)c1ccc(Cl)c(-n2c(=O)[nH]c3csc(C(=O)O)c3c2=O)c1)c1ccccc1 [Example 146]	maintain their blood concentrations 6 hours after the oral administrations
1310	20	–	more excellent availability	B (B: 300 ng/mL to 1000 ng/mL)	CC(C)(c1ccccc1)S(=O)(=O)c1ccc(F)c(-n2c(=O)[nH]c3csc(C(=O)O)c3c2=O)c1 [Example 202, 5-Carboxy-3-[2-fluoro-5-(1-methyl-1-phenylethylsulfonyl) -phenyl]thieno[3,4-d]pyrimidine-2,4(1H,3H)-dione]	maintain their blood concentrations 6 hours after the oral administrations
25000	15	–	more excellent availability	A (A: >1000 ng/mL)	COc1cc(F)c(-n2c(=O)[nH]c3csc(C(=O)O)c3c2=O)cc1OCc1c(OC)ccc(F)c1F [Example 233, 5-Carboxy-3-[2-fluoro-5-(2,3-difluoro-6-methoxybenzyloxy) -4-methoxyphenyl]thieno[3,4-d]pyrimidine-2,4(1H,3H)-dione]	maintain their blood concentrations 6 hours after the oral administrations
17600	–	–	more excellent availability	A (A: >1000 ng/mL)	CC(C)(Oc1ccc(Cl)c(-n2c(=O)[nH]c3csc(C(=O)O)c3c2=O)c1)c1ccccc1 [Example 271]	maintain their blood concentrations 6 hours after the oral administrations
25600	42	–	more excellent availability	A (A: >1000 ng/mL)	COc1cc(F)c(-n2c(=O)[nH]c3csc(C(=O)O)c3c2=O)cc1COc1c(OC)ccc(F)c1F [Example 414]	maintain their blood concentrations 6 hours after the oral administrations
13500	17	–	more excellent availability	–	COc1ccc(F)cc1C(C)(C)Sc1ccc(F)c(-n2c(=O)[nH]c3csc(C(=O)O)c3c2=O)c1 [Example 191]	–
15200	29	–	more excellent availability	B (B: 300 ng/mL to 1000 ng/mL)	COc1cc(F)c(-n2c(=O)[nH]c3csc(C(=O)O)c3c2=O)cc1CN(C)c1c(F)cccc1F [Example 420]	maintain their blood concentrations 6 hours after the oral administrations
